Test results taken from patent US20040002141A1, “Methods and compositions for propagating vectors containing toxic cDNAs and ion channel assay systems” (priority 2002, published 2004).

Legend:
UNC-105d = conditions: García-Añoveros et al., 1998; cited from earlier work
αβγENaC channels = molecular target: T1, αβγENaC channels (Rattus norvegicus, UniProt P37089+P37090+P37091); conditions: McNicholas and Canessa, 1997; cited from earlier work
T1 sequence (P37089 1-698): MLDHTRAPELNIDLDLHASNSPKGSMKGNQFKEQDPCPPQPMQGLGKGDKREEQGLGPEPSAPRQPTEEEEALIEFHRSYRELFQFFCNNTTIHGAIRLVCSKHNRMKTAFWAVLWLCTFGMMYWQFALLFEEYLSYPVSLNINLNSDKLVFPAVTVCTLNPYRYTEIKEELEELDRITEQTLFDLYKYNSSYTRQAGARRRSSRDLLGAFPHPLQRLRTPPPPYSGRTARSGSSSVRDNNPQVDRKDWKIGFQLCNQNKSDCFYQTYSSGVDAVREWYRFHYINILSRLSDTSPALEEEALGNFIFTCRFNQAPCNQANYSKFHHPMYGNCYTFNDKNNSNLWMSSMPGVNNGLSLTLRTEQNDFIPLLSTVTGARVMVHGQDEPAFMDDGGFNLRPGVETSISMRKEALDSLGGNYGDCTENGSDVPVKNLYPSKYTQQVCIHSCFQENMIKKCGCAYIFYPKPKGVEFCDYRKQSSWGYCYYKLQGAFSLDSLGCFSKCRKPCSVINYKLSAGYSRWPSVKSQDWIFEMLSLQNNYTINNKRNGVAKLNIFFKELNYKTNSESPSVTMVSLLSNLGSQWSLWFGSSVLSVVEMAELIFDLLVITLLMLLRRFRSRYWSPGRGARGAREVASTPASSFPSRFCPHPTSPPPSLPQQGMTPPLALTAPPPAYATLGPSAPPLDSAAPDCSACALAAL
T1 sequence (P37090 1-638): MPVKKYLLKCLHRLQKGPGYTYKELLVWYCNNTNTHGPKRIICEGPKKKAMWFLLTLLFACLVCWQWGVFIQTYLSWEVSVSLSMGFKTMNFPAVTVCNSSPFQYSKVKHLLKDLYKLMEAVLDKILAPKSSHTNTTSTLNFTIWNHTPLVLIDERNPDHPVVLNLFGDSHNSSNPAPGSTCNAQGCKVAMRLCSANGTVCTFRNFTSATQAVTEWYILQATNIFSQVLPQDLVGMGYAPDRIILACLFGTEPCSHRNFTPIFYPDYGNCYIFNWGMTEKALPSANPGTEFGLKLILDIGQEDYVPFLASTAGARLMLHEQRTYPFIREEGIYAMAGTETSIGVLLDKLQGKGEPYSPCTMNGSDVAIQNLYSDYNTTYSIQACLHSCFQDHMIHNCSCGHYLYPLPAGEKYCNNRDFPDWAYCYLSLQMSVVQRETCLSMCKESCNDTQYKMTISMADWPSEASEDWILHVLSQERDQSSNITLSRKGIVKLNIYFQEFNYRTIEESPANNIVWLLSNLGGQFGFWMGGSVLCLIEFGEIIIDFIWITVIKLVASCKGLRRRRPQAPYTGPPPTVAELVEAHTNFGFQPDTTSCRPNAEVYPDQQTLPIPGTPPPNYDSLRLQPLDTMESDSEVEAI
T1 sequence (P37091 1-650): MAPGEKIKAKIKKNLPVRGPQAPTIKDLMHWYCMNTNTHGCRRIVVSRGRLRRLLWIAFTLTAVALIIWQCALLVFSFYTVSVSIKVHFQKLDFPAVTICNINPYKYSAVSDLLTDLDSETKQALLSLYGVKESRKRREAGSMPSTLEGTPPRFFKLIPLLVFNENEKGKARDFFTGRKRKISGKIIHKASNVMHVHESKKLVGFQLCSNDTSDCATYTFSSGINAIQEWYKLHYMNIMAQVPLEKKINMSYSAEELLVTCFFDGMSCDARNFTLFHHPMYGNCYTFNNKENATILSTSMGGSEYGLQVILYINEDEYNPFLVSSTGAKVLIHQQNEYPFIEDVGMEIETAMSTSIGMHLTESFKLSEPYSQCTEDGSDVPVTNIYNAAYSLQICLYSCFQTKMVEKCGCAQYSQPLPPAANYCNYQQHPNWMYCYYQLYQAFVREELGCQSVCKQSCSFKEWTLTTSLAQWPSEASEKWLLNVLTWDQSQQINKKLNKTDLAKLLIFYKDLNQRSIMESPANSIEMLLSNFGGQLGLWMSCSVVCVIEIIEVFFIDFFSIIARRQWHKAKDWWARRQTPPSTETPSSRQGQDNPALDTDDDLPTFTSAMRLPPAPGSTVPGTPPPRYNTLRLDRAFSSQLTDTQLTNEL

[1] = molecular target: T2, MEC-4d, MEC-10d and MEC-2 (Caenorhabditis elegans, UniProt P24612+P34886, A673T/A713T); experiment: Amiloride dose-response, two-electrode voltage clamp in Xenopus oocytes co-expressing MEC-4d, MEC-10d and MEC-2; type: cell-based; conditions: in the presence of MEC-10d
T2 construct: Plasmids containing full-length degenerin cDNAs are toxic to standard E. coli strains; expressed in transfected cells; host or cells: Xenopus laevis oocytes injected with cRNA
Protocol: (§1) Oocyte Expression & Electrophysiology. Capped RNAs (“cRNAs”) were synthesized (T7 mMESSAGE mMACHINE™ kit, Ambion, Austin, Tex.), purified, and quantified spectroscopically. Xenopus laevis oocytes were harvested and injected with 10 ng of each cRNA, except for oocytes co-expressing only MEC-4d and MEC-2(114-363), which were injected with 10 ng of the former and 20 ng of the latter. Oocytes were maintained in L-15 oocyte medium containing 100 μg/mL gentamicin (Cell & Molecular Technologies, Philipsburg, N.J.) at 16-18° C.
(§2) Membrane potential and current were measured 4-10 days after cRNA injection using a two-electrode voltage clamp (Warner OC-725C) at 22-25° C. […]
(§3) Analog signals were filtered at 200 Hz and sampled at 1-2 kHz (ITC-16, Instrutech, Great Neck, N.Y.); a 60 Hz notch filter was used to minimize line noise. Average values are reported as mean±S.E.M. Curves were fit by a nonlinear least-squares method (IgorPro 4.01, Wavemetrics, Oswego, Oreg.); the standard deviation measured at each point provided the weighting function. […] Relative permeabilities were calculated from the difference in reversal potential measured in solutions containing Na^+ and each test ion using the Goldman-Hodgkin-Katz equation (Hille, 2001, In: Ion Channels of Excitable Membranes, Sinaur Associates, Inc., Sunderland, Mass.).

MEC-4d and MEC-2 = molecular target: T3, MEC-4d and MEC-2 (Caenorhabditis elegans, UniProt P24612, A713T); experiment: Amiloride dose-response, two-electrode voltage clamp in Xenopus oocytes co-expressing MEC-4d and MEC-2; type: cell-based; conditions: in the absence of MEC-10d; without MEC-2(114-363)
T3 construct: Plasmids containing full-length degenerin cDNAs are toxic to standard E. coli strains; expressed in transfected cells; host or cells: Xenopus laevis oocytes injected with cRNA
Protocol: as §1, §2, §3

T3 sequence (Q27433 whole entry): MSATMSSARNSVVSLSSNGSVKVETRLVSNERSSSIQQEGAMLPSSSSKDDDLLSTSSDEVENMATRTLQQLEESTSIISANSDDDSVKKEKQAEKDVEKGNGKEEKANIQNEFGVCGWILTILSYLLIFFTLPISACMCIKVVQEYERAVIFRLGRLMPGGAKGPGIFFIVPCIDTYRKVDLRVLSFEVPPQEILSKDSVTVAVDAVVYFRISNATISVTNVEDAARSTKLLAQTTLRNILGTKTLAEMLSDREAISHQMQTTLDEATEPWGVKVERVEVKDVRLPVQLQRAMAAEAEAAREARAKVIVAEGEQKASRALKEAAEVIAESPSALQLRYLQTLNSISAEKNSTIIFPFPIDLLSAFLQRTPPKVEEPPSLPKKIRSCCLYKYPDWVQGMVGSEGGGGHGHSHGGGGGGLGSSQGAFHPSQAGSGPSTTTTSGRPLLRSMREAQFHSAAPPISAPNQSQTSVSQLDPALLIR
T3 sequence (P24612 whole entry A713T): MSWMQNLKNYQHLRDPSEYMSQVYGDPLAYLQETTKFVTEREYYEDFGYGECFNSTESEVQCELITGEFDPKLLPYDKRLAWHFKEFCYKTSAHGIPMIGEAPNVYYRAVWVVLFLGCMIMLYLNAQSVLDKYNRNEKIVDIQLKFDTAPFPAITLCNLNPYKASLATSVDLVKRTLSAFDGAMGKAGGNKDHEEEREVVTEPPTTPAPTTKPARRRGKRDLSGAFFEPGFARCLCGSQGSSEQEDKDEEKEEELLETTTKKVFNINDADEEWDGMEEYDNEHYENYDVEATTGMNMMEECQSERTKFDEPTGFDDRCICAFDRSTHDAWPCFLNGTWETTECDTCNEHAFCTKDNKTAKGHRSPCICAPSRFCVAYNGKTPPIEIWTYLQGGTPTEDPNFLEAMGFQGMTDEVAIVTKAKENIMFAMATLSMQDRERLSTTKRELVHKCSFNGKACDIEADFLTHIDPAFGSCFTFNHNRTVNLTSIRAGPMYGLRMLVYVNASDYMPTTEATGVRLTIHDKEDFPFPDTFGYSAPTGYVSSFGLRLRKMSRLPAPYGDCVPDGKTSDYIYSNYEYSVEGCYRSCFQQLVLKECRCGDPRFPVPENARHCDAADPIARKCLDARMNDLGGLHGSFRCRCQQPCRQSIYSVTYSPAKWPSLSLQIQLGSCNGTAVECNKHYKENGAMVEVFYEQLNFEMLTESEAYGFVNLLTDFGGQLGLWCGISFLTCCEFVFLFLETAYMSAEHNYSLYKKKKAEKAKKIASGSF
T2 sequence (P34886 whole entry A673T): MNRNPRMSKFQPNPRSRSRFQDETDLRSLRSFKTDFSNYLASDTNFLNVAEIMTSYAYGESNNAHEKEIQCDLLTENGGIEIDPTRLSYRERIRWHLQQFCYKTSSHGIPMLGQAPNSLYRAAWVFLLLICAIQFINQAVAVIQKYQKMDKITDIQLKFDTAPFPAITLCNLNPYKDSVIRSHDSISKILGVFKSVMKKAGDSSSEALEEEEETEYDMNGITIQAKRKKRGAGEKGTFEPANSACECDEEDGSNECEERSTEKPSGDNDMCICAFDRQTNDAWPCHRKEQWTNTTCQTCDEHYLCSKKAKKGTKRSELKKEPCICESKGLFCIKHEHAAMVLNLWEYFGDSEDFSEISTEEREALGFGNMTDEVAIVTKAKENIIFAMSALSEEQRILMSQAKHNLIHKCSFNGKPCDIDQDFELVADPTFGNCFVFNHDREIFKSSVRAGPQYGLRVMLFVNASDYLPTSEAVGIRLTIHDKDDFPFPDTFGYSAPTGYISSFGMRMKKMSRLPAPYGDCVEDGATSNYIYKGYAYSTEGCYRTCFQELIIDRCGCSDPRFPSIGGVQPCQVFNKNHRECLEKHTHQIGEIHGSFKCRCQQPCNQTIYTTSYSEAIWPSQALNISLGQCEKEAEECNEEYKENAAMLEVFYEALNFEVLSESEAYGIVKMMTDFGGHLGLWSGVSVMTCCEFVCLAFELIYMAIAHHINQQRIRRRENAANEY
T2 sequence (P24612 whole entry A713T): as the sequence (P24612 whole entry A713T) above

N=C(N)NC(=O)c1nc(Cl)c(N)nc1N [amiloride]
δ, voltage-dependence of amiloride blockade (UNC-105d): 0.65-0.68 | δ, voltage-dependence of amiloride blockade (αβγENaC channels): 0.15 | δ, voltage-dependence of amiloride blockade (Woodhull model fit) [1]: 0.52 | δ, voltage-dependence of amiloride blockade (Woodhull model fit) (MEC-4d and MEC-2): 0.63
